We go through one compound from patent publication US5480908A, “β3 -adrenergic agents benzodioxole dicarboxylates and their use in pharmaceutical compositions” (American Cyanamid Company, priority 1993, dated 1996).

Where a name gives a salt, the structure may show the parent alone.

Assay [1] has as its system β1 -adrenergic receptor. In words: Heart Binding (β1): binding assay with membranes from rat heart. The following applies: β3 lipolysis vs β1 heart binding. As for the experimental part:
(§1) Selectivity of a compound is determined using the following procedures.
(§2) Binding assays for β1 -effect are carried out by the use of membranes from rat heart, and β2 -effect by the use of membranes from rat lung by the method described in Neve, et. al., J. Pharmacol. Exp. Ther., 1985, 235, 657-664 with the following exceptions:
(§3) 1. the incubation volume is 0.5 ml,
(§4) 2. the incubation time is 1 hour,
(§5) 3. the radioligand is [^125 I]iodo-cyanopindolol,
(§6) 4. (--) - isoproterenol (50 μM) is used to define […], and
(§7) 5. the filters are washed at 4° C.

The target of assay [2] is T1, β1 -adrenergic receptor (Rattus norvegicus, UniProt P18090).
T1 construct: membranes from rat heart; from tissue; host or cells: rat heart membranes
T1 sequence (P18090 whole entry): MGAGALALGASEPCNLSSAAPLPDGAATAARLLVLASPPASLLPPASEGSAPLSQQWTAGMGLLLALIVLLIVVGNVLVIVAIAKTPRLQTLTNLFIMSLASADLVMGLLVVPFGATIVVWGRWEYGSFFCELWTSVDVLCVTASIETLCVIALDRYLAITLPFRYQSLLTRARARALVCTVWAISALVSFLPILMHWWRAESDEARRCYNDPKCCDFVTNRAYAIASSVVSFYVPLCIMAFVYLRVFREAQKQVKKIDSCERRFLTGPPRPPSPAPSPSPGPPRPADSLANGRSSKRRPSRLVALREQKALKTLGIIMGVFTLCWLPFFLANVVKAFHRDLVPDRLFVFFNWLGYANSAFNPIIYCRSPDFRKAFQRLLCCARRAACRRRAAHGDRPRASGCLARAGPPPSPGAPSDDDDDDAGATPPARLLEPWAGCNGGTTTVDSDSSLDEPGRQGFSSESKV
The assay is described as above. The following applies: rat heart membranes, [^125 I]iodo-cyanopindolol, 1 hour. How it is done:
as §1, §2, §3, §4, §5, §6, §7

The target of a further assay is T2, β3 -adrenergic receptor (Rattus norvegicus, UniProt P26255).
T2 construct: Rat epididymal fat pads are excised and placed in 0.9% saline; from tissue; host or cells: rat epididymal fat pads, collagenase-isolated adipocytes
T2 sequence (P26255 whole entry): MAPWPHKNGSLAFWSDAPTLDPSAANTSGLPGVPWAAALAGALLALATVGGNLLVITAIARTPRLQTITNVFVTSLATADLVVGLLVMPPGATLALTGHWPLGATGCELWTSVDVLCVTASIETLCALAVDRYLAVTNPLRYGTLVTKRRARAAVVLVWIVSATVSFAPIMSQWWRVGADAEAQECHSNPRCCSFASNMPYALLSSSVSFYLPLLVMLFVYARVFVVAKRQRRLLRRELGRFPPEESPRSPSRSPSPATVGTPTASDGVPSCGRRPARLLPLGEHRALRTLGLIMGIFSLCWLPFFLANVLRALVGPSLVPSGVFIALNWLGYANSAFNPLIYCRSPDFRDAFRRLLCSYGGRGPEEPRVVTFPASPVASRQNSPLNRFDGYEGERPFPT
In words: Lipolysis (β3-effect): stimulation of adipocyte lipolysis, glycerol release. The format is cell-based. To be noted: rat epididymal adipocytes, 30 minutes, 37° C.; concentration giving 50% of the maximum rate of lipolysis of that compound. How it is done: as §1
The β3 -effect of the compounds is determined by their ability to stimulate adipocyte lipolysis. Rat epididymal fat pads are excised and placed in 0.9% saline. Four grams of tissue is transferred to a flask with 20 ml of aerated KrebsHenseleit bicarbonate (KHB) buffer containing 3% fatty acid-free bovine serum albumin to which 75 mg of crude bacterial collagenase (Worthington) has been added. The tissue is incubated for about 45 minutes at 37° C. with gentle shaking. The cells are then washed three times with two volumes of KHB buffer, filtered through two layers of gauze, and brought to a final volume of 80 ml with KHB buffer. One-ml-aliquots of the cell suspension is added to plastic test tubes containing the appropriate additions of vehicle or compound. The cells are gassed for 1 minute with 95% O2 -5% CO2, capped, and incubated at 37° C. with continuous shaking for a total of 30 minutes. The reaction is stopped by adding 0.1 ml of 30 % perchloric acid and 0.1 ml of chloroform. […] The amount of glycerol generated from the hydrolysis of endogenous triglycerides is determined in a coupled-enzyme spectrophotometric assay. […] The amount of NADH generated, which is proportional to the amount of glycerol, is determined by the increase in absorbance at 340 nm. […]

Assay [3] concerns β2. In words: Lung Binding (β2): binding assay with membranes from rat lung. To be noted: printed β3; Table 1 indicates β2 (lung binding). How it is done:
as §1, §2, §3, §4, §5, §6, §7

In assay [4] the target is T3, β2 (Rattus norvegicus, UniProt P10608).
T3 construct: membranes from rat lung; from tissue; host or cells: rat lung membranes
T3 sequence (P10608 whole entry): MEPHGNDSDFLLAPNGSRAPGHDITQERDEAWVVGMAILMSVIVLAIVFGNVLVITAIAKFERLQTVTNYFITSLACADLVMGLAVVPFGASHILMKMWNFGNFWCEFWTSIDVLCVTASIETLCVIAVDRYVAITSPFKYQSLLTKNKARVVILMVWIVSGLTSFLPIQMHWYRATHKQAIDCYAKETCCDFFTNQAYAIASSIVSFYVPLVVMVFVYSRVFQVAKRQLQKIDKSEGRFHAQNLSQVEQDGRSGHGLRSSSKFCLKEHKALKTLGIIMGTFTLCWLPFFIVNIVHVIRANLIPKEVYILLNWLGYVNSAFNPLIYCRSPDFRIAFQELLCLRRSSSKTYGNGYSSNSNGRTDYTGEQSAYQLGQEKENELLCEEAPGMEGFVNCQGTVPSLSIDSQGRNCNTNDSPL
The description is as above. To be noted: rat lung membranes, [^125 I]iodo-cyanopindolol, 1 hour. How it is done:
as §1, §2, §3, §4, §5, §6, §7

Turning to `C[C@H](Cc1ccc2c(c1)OC(C(=O)O)(C(=O)O)O2)NCC(O)COc1cccc2ccccc12` (mixture of isomers) [Example 1, (R,R) and (S,R)-5-[2-[[2-Hydroxy-3-(1-naphthalenyloxy)propyllamino]propyl-1,3-benzodioxole-2,2-dicarboxylic acid, disodium salt], the “selectivity for the β3 -adrenergic receptor over the β1 -adrenergic receptor” value in the assay on β1 -adrenergic receptor [1] was “shows selectivity”. In addition, the IC50 on β1 -adrenergic receptor [2] came to 1520 nM; on β2 [4] it was 360 nM. At β3 -adrenergic receptor, this compound gave an EC50 of 264 nM. In addition, the “selectivity when compared to the β3 -receptor” value in the assay on β2 [3] was “not selective”.
